Assay results published in US20160332971A1, “ARYLQUINOLINE, ARYLQUINOLONE AND ARYLTHIOQUINOLONE DERIVATIVES AND USE THEREOF TO TREAT CANCER” (UNIVERSITY OF KENTUCKY RESEARCH FOUNDATION, priority 2015, published 2016).

How the values were obtained:
[1] = tested on: Par-4 secretion from mouse fibroblasts; test: Par-4 secretion into conditioned medium, quantitative Western blot normalised to CollA1; type: cell-based; conditions: for Relative Levels of Par-4 Secretion by Arylquins Administered at 500 nM: 24 h, mouse fibroblasts, CM; for Par-4 secretory activity (in words): SAR discussion; for Par-4 secretory activity (in words) / Ratio of Par-4 Secretion by Arylquin 1 Relative to Vehicle: 500 nM
Method: Calibration curve developed using fixed amounts (0.05-5 ng) of recombinant TRX-Par-4. […] Therefore the concentration was 0.82 ng/40 μL or 540 pM, In the same fashion, calculation for Par-4 concentration using vehicle (v) was 280 pM.
Biological activity of 3-Arylquinolines. […] After 24 h exposure, the CM and lysates were subjected to quantitative Western blot analysis for Par-4 and collagen (CollA1).
Co-immunoprecipitation and Western blot analysis. Protein extracted from cell lysates was filtered, pre-cleared with 25 μL (bed volume) of protein G-Sepharose beads and immunoprecipitated with 1 μg of respective antibodies. The eluted proteins were resolved by SDS-PAGE, and subjected to Western blot analysis as described previously. Bensch, et al. Nature 1968, 218(5147):1176-1177.
Statistical analyses. All experiments were performed in triplicate to verify the reproducibility of the findings. […] Statistical analyses were carried out with Statistical Analysis System software (SAS Institute, Cary, N.C.) and P values were calculated using the Student t test.

hERG potassium channel = hERG potassium channel (Homo sapiens, UniProt Q12809)
Description: hERG Binding studies, An HEK-293 cell line stably expressing the hERG potassium channel (accession number U04270) referred to as hERG-HEK cells were received at passage 11 (P11) from Millipore (CYL3006, lot 2, Billerica, Mass.). [^3H]-Dofetilide (specific activity of 80 Ci/mmol; labeled on the N-methyl group) was obtained from American Radiolabeled Chemicals (St. Louis, Mo.). Other chemicals and solvents were obtained from Sigma-Aldrich (Milwaukee, Wis.). Polyethylenimine (PEI) was obtained from Fluka/Sigma-Aldrich (St. Louis, Mo.), and Minimium Essential Medium (MEM) with GlutaMAX™ and phenol red, MEM non-essential amino acids solution (NEAA, 100×), G418 disulfate salt solution, fetal bovine serum (FBS), 0.05% Trypsin-EDTA 1× with phenol red, and Hank's balanced salt solution (HBSS) were obtained from Life Technologies (Carlsbad, Calif.).
hERG-HEK Cell culture. hERG-FIEK Cells were cultured according to the protocol provided by Millipore. Cells were maintained in MEM (with glutamax and phenol red) supplemented with 10% […], 1% NEAA and […], and incubated at 37 ° C. in a humidified atmosphere with 5% CO2. Frozen aliquots of cells were transferred into T-75 cm^2 flasks and allowed to adhere for 4-8 h. The medium was replaced every 2 days. Passages were carried out at least 3 times after thawing at 6 day intervals. Cells were dissociated with trypsin/EDTA and seeded into new 150×25 mm dishes at 2-3×10^6 cells per dish and placed at 30° C., 5% CO2, for 40-48 h prior to membrane preparation. Membrane preparation occurred 6 days after the last passage (passage 20).
Membrane preparation. Cell membrane preparation was based on previous methods. See Herrmann, et al. J Mol Biol 1996, 264:933-953; Lavie, et al. J Org Chem 1965, 30(6):1774-1778; Chen, et al. A Practical Guide to Assay Development and High-throughput Screening in Drug Discovery, CRC Press Taylor and Francis Group, Boca Raton, Fla., 2010; Redfern, et al. Cardiovasc Res 2003, 58, 32-45. Cells were rinsed twice with HBSS at 37° C. and collected by scraping the dishes in 20 mL of ice-cold 0.32 M sucrose and homogenized on ice with a Teflon pestle using a Maximal Digital homogenizer (Fisher Scientific, Pittsburgh, Pa.) at 280 rpm for 30 sec. Homogenates were centrifuged at 300 g and 800 g for 4 min each at 4° C. Pellets were resuspended in 9 mL of ice-cold Milli-Q water and osmolarity restored by addition of 1 mL of 500 mM Tris buffer (pH 7.4) followed by suspension and centrifugation at 20,000 g for 30 min at 4° C. Pellets were homogenized in 2 mL assay buffer (50 mM Tris, 10 mM KCl, and 1 mM MgCl2, 4° C.) and aliquots of cell membrane suspensions were stored at −80° C. and thawed the day of the [^3H]-dofetilide binding assay. Protein content was determined prior to the assay using a Bradford protein assay with bovine albumin as the standard.
[^3H]-Dofetilide binding assay. [^3H]-Dofetilide binding assays using hERG-HEK293 cell membranes were based on previous methods. Redfern, et al. Cardiovasc Res 2003, 58, 32-45. Assays determining concentration-response were conducted in duplicate, and three independent assays were performed for each analog evaluated. […] Radioactivity was determined by liquid scintillation spectrometry using the Tri-Carb 2100-TR Liquid Scintillation Analyzer (Perkin-Elmer Life and Analytical Sciences) […]

hERG potassium channel, sequence (Q12809 whole entry): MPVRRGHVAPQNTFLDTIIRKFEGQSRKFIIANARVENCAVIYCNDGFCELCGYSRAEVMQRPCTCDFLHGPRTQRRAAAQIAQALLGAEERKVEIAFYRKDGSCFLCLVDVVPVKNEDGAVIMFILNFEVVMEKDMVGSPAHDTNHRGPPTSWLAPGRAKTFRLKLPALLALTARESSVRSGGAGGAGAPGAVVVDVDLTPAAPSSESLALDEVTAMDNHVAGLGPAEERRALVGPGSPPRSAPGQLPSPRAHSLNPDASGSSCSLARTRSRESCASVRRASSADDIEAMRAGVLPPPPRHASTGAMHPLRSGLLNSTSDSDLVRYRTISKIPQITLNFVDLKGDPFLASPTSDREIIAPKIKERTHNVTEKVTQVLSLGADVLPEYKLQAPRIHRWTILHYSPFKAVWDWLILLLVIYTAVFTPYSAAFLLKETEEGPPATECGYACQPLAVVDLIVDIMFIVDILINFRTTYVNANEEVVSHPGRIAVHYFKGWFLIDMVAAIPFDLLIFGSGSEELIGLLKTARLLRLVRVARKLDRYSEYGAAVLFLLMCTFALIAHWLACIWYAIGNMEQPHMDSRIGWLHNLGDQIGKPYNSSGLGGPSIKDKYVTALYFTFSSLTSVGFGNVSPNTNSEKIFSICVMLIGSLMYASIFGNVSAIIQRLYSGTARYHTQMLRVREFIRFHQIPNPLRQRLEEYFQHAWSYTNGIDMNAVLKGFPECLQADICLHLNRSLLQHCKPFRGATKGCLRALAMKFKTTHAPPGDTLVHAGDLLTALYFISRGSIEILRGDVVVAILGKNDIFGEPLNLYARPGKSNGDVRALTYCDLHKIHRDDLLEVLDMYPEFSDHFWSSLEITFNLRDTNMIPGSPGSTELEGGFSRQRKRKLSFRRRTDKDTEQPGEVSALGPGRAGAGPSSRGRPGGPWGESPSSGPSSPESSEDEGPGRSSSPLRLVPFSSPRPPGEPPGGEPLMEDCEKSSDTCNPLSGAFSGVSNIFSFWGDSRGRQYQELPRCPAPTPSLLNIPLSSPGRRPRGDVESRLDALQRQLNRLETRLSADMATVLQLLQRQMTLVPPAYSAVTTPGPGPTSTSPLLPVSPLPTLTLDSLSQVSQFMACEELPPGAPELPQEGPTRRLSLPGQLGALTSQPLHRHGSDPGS

Row | SMILES | Relative Levels of Par-4 Secretion by Arylquins Administered at 500 nM ([1]; Table 1) | Par-4 secretory activity (in words) [1] | IC50 (hERG potassium channel) [µM] | Ratio of Par-4 Secretion by Arylquin 1 Relative to Vehicle ([1]; Table 2) | Relative Levels of Par-4 Secretion by Arylquins Administered at 500 nM ([1]; Table 2)
1 | CN(C)c1ccc2cc(-c3cccc(F)c3)c(N)nc2c1 [Arylquin 1d] | 66.8 ± 10.9 | weakly active | 1.59 ± 0.39 | – | –
2 | CN(C)c1ccc2cc(-c3ccc(F)cc3)c(N)nc2c1 [Arylquin 1f] | 12.3 ± 2.0 | weakly active | 30.2 ± 10.3 | – | –
3 | CN(C)c1ccc2cc(-c3ccccc3F)c(=S)[nH]c2c1 [Arylquin 10] | – | diminished Par-4 secretory activity relative to arylquinoline 1a | > 100 | 1.7 | 51.7 ± 4.9
4 | CN(C)c1ccc2cc(-c3ccccc3F)c(N3CCOCC3)nc2c1 [Arylquin 13a, 3-(2-Fluorophenyl)-NA-dimethyl-2-morpholinoquinolin-7-amine] | – | diminished activity to varying degrees | 23.3 ± 3.05 | 1.8 | 54.4 ± 2.8
5 | Nc1nc2ccccc2cc1-c1ccccc1F [Arylquin 15a] | – | decreased Par-4 secretory activity only slightly | 14.6 ± 5.82 | 2.8 | 82.1 ± 21.2
